Counter-ions that a name gives are not always drawn.
Key:
recombinant human MMP-1 = target: T1, recombinant human MMP-1 (Homo sapiens, UniProt P03956); assay: In vitro metalloprotease inhibition, fluorogenic peptide substrate; format: biochemical; settings: for IC50: APMA-activated enzyme, room temperature, pH 7.5, substrate 4 μM
T1 construct: made in house; host or cells: transfected HT-1080 cells (provided by Dr. Howard Welgus, Washington University)
T1 sequence (P03956 100-469): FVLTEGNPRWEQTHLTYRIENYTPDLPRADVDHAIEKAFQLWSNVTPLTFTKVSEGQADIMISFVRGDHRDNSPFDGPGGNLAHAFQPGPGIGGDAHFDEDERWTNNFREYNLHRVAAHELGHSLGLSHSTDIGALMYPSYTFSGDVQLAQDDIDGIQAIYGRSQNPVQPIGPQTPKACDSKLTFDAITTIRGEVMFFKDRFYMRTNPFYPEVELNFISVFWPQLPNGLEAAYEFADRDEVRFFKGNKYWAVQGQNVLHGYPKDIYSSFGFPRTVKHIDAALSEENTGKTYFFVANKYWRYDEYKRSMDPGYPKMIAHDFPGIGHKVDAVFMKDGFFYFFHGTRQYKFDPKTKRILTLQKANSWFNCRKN

recombinant human MMP-13 = target: T2, recombinant human MMP-13 (Homo sapiens, UniProt P45452); assay: as above; format: biochemical; settings: for IC50: APMA-activated enzyme, room temperature, pH 7.5, substrate 4 μM
T2 construct: made in house

[1] = system: neovascularization of the corneal stroma; assay: In vivo angiogenesis assay (corneal micropocket); settings: mouse cornea, bFGF/sucralfate pellet, daily dosing, scored at day five; exemplary dose 50 mg/kg bid, po
Description: The study of angiogenesis depends on a reliable and reproducible model for the stimulation and inhibition of a neovascular response. The corneal micropocket assay provides such a model of angiogenesis in the cornea of a mouse.
In this assay, uniformly sized Hydron™ pellets containing bFGF and sucralfate were prepared and surgically implanted into the stroma mouse cornea adjacent to the temporal limbus. The pellets were formed by making a suspension of 20 μL sterile saline containing 10 μg recombinant bFGF, 10 mg of sucralfate and 10 μL of 12 percent Hydron™ in ethanol. The slurry was then deposited on a 10×10 mm piece of sterile nylon mesh. […]
Mice were dosed on a daily basis for the duration of the assay. […] At day five, the degree of angiogenic inhibition was scored by viewing the neovascular progression with a slit lamp microscope.
The mice were anesthetized and the studied eye was once again proptosed. The maximum vessel length of neovascularization, extending from the limbal vascular plexus toward the pellet was measured. In addition, the contiguous circumferential zone of neovascularization was measured as clock hours, where 30 degrees of arc equals one clock hour. The area of angiogenesis was calculated as follows. […]
The studied mice were thereafter compared to control mice and the difference in the area of neovascularization was recorded.

[2] = system: solid tumor cancers (colorectal, pancreatic, ovarian, prostate); settings: patients, cited from earlier work

Structure (SMILES)	IC50 (recombinant human MMP-1) [nM]	IC50 (recombinant human MMP-13) [nM]	also measured
Cl.O=C(Nc1ccc(S(=O)(=O)CC2(C(=O)NO)CCNCC2)cc1)c1ccccc1 [Example 1, N-hydroxy-4-[[[4-(benzoylamino)phenyl]sulfonyl]methyl]-4-piperidinecarboxamide, monohydrochloride]	> 10000	243	activity against MMP-1 (in words) (recombinant human MMP-1; comment on Table 13): virtually unbound; activity against MMP-13 (in words) (recombinant human MMP-13; comment on Table 13): moderate activity
COc1cccc(CN2CCC(CS(=O)(=O)c3ccc(Oc4ccccc4)cc3)(C(=O)NO)CC2)c1 [Example 3, N-Hydroxy-1-[(3-methoxyphenyl)methyl]-4-[[(4-phenoxyphenyl)sulfonyl]methyl]-4-piperidinecarboxamide, Monohydrochloride]	330	0.4	
Cl.O=C(NO)C1(CS(=O)(=O)c2ccc(Oc3ccccc3)cc2)CCNCC1 [Example 6, N-Hydroxy-4-[[(4-phenoxyphenyl)sulfonyl]-methyl]-4-piperidinecarboxamide, Monohydrochloride]	2400	8	inhibition of area of neovascularization versus control mice [1]: 80.0%
CNC(=O)[C@@H](NC(=O)[C@H](CC(C)C)[C@H](O)C(=O)NO)C(C)(C)C [marimastat]			effect on cancer-specific antigens used as surrogate markers for biological activity ([2]; Phase I/II studies, meta analysis): dose-related reduction in the rise of cancer-specific antigens; most common drug-related toxicity ([2]; clinical trials): musculoskeletal pain and stiffness

Continued, in another order:

IC50 (recombinant human MMP-1) [nM]	IC50 (recombinant human MMP-13) [nM]	Structure (SMILES)	also measured
700		O=C(NO)C1(CS(=O)(=O)c2ccc(Oc3ccccc3)cc2)CCN(CCc2ccccc2)CC1 [Example 2, N-Hydroxy-4-[[(4-phenoxyphenyl)sulfonyl]-methyl]-1-(2-phenylethyl)-4-piperidinecarboxamide, Monohydrochloride]	
485	0.6	C#CCN1CCC(CS(=O)(=O)c2ccc(Oc3ccccc3)cc2)(C(=O)NO)CC1 [Example 4, N-Hydroxy-4-[[(4-phenoxyphenyl)sulfonyl]-methyl]-1-(2-propynyl)-4-piperidinecarboxamide, Monohydrochloride]	
475	0.2	CC(C)(C)OC(=O)N1CCC(CS(=O)(=O)c2ccc(Oc3ccccc3)cc2)(C(=O)NO)CC1 [Example 5, 1,1-Dimethylethyl Ester 4-[(Hydroxyamino)-carbonyl]-4-[[(4-phenoxyphenyl]sulfonyl]methyl]-1-piperidinecarboxylic Acid]	
	0.85	C#CCN1CCC(CS(=O)(=O)c2ccc(Oc3ccc(C)c(C)c3)cc2)(C(=O)NO)CC1 [Example 7, N-Hydroxy-4-[[[4-(3,4-dimethylphenoxy)phenyl]sulfonyl]-methyl]-1-(2-propynyl)-4-piperidinecarboxamide, Monohydrochloride]	
	1.3	C#CCN1CCCC1(CS(=O)(=O)c1ccc(Oc2ccccc2)cc1)C(=O)NO (stereo not drawn) [Example 8, N-Hydroxy-2-[[(4-phenoxyphenyl)sulfonyl]-methyl]-1-(2-propynyl)-2-pyrrolidine Carboxamide, Monohydrochloride]	
